# Assay results: paper PMC10144566, “Pharmacokinetic Profile Evaluation of Novel Combretastatin Derivative, LASSBio-1920, as a Promising Colorectal Anticancer Agent” (Pharmaceutics, 2023)
# “Also recorded” adds a separate entry of the source. Where two headings read alike, the source gives them in different places.
# Key:
# [1] = system: H-1975, non-small cell lung adenocarcinoma; experiment: MTT cytotoxicity assay, H-1975; conditions: Homo sapiens, NCI-H1975, 72 h, read-out: IC50 (95% CI) H-1975
# Protocol: (§1) The cytotoxicity of the compounds was determined using the MTT assay [13]. Cells were seeded in 96-well plates as follows: 0.7 × 10^5 cells/well for adherent cancer cells, 0.3 × 10^5 cells/well for suspended cancer cells, and 0.2 × 10^5 cells/well for HPBMCs. […] The control group was treated with the vehicle. […] After incubation, the supernatant was decanted and replaced with fresh medium containing MTT (0.5 mg/mL).
# (§2) Data were presented as mean ± standard error of the mean (SEM) from three independent experiments performed in triplicate, calculated using Prism 8.0 (GraphPad/Intuitive Software for Science, San Diego, CA, USA). The IC50 of the compounds was obtained using a non-linear regression of the cytotoxicity curves.
# EGFR-wt = target: T1, EGFR-wt (Homo sapiens, UniProt P00533); experiment: Inhibition of EGFR, LANCE TR-FRET assay; type: biochemical; conditions: 1 and 10 µM (either concentration); data not shown
# T1 construct: Eurofins
# Protocol: Inhibition of EGFR assay: The inhibition of EGFR activity was determined using the LANCE®TR-FRET (time-resolved fluorescence energy transfer) test according to the protocol described by Weber et al. (1984). The reference compound (PD153035) was tested simultaneously with LASSBio-1920 (1 and 10 µM). The LASSBio-1920 concentrations were determined based on IC50 values and the compound’s aqueous solubility. The experiment was carried out in agreement with Eurofins®’s Standard Operating Procedure.
# [2] = Chemical stability in buffer (HPLC); type: physicochemical; conditions: 0–240 min
# N-87, gastric carcinoma = experiment: MTT cytotoxicity assay, N-87; conditions: Homo sapiens, 72 h, read-out: IC50 (95% CI) N-87
# Protocol: as §1, §2
# [3] = Microsomal (metabolic) stability; type: in vitro ADME; conditions: Wistar rat liver microsomes, with or without NADPH-generating system, 100 µM, up to 120 min
# Protocol: Livers were obtained from male Wistar rats (250 and 300 g) from the Federal University of Ceara (UFC, Fortaleza, Brazil). The livers were maintained in an ice bath and washed with 3 volumes of 0.05 M Tris-HCl and 0.25 M sucrose, pH 7.4. They were then sliced and homogenized in a Potter–Elvehjem glass-Teflon homogenizer. The homogenates were centrifuged for 30 min at 900× g at 4 °C, and the supernatant fraction was centrifuged at 10,000× g for 1 h at 4 °C. The pellet was discarded, and the supernatant fraction was centrifuged at 100,000× g for 1 h at 4 °C. The microsomal fraction in the resulting pellet was recovered. The pellet was washed and resuspended twice in 0.05 M Tris-HCl, condensed into a pellet again by centrifugation for 1 h at 100,000× g at 4 °C and, finally, resuspended in the Tris-HCl buffer. Metabolic assays were carried out with frozen microsomes in Tris–HCl buffer, stored at –80 °C. […]
# The final concentration of DMSO in the incubation mixture was 0.5%. […] The supernatant was analyzed by HPLC (acetonitrile/water 7:3 with 0.1% trifluoroacetic acid) using an internal standard (4-acetylbiphenyl—final concentration of 20 µM). […]
# PAMPA-BBB permeability = type: in vitro ADME; conditions: for Papp: PAMPA
# Protocol: For this, two 96-well plates were placed one above the other, and between them, an artificial hydrophobic polyvinylidene fluoride (PVDF) membrane, which was impregnated with a lipid solution. The top plate works as the donor compartment and the bottom one as the receiver compartment.
# Parallel artificial membrane permeation assay for the blood–brain barrier (PAMPA-BBB): It was performed according to the previously reported [26] method established by Lu and coworkers [27].
# PC-9 cells = experiment: Annexin V/7-AAD apoptosis assay by flow cytometry, PC-9; type: cell-based, human; conditions: 0.75 µM, 48 h, negative control 2.40 ± 0.17%
# Protocol: The control group received the same amount of vehicle, of which the concentration was kept constant (below 0.5%). Cell treatments were completed in triplicate. CA4 (0.2 or 0.5 µM) was used as the positive control. Stock solutions of the compounds tested were dissolved in DMSO and diluted in the culture medium to obtain the desired concentrations.
# Apoptosis assay: Apoptosis was analyzed using Annexin V/7-AAD staining followed by flow cytometry. Cells were collected and stained using an Annexin V-PE/7-AAD apoptosis detection kit. Annexin V binds to phosphatidylserine (PS) in apoptosis cells as PS translocates from the inner to the outer leaflet of the cytoplasmic membrane. 7-AAD is a fluorescent intercalator of DNA impermeable to the cell, providing a reliable indication of membrane integrity. Double staining distinguishes between viable, early apoptotic, necrotic, and late apoptotic cells. The resulting fluorescence of annexin V-PE at 583 nm and 7-AAD at 680 nm of every sample was analyzed by flow cytometry. The 7-AAD-positive and annexin V-negative cells were considered necrotic. Annexin V-positive cells (7-AAD-positive and 7-AAD-negative cells) were classified as apoptotic. 7-AAD-negative and annexin V-negative cells were deemed viable.
# T1 sequence (P00533 25-1210): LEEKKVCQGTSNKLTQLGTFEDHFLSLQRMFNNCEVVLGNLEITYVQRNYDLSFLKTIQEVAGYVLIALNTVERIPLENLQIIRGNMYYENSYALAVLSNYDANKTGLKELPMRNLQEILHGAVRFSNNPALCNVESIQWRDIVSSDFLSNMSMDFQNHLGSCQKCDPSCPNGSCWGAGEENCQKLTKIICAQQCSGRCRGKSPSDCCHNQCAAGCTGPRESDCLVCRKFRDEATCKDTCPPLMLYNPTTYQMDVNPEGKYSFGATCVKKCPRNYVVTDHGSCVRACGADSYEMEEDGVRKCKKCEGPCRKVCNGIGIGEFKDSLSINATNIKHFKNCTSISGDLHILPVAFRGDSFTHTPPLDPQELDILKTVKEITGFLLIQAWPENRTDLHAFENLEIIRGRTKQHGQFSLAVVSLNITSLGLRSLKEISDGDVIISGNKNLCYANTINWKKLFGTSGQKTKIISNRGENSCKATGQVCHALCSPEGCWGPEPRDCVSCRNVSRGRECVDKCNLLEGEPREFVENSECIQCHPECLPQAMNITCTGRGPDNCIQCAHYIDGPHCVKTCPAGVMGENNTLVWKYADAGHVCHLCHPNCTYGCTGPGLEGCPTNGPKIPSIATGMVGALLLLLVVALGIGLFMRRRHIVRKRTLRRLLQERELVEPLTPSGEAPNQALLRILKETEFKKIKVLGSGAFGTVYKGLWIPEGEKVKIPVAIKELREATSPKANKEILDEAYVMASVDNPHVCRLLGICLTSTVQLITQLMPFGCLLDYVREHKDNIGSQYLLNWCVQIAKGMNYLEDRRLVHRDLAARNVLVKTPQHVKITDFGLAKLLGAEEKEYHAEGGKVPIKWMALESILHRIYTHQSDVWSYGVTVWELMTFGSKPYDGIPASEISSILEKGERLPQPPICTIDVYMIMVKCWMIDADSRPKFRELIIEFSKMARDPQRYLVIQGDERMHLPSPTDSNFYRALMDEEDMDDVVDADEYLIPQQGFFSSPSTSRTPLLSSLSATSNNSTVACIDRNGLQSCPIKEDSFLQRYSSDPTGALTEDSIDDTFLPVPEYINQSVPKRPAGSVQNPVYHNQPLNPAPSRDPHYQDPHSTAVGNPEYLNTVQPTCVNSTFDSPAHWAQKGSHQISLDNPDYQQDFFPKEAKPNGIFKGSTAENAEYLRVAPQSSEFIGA
smiles,measurement,setting,value
"COc1cc(C(=O)N/N=C/c2cc3ccccc3s2)cc(OC)c1OC [LASSBio-1920, (E)-N′-(Benzo[b]thiophen-2-ylmethylene)-3,4,5-trimethoxybenzohydrazide]",IC50,[1],210 nM
same,enzymatic inhibition of EGFR-wt,EGFR-wt,less than 20%
same,chemical stability at pH 2,"[2]; HCl buffer pH 2, 37 °C","unstable at pH 2; also recorded: unstable in an acid medium (HCl buffer, pH 2)"
same,chemical stability at pH 7.4,"[2]; phosphate buffer pH 7.4, 37 °C","stable at pH 7.4 at all time points; also recorded: stable in a practically neutral medium (phosphate buffer, pH 7.4)"
same,IC50,"N-87, gastric carcinoma",440 nM
same,metabolic stability in liver microsomal fraction,[3],significantly metabolized by the microsomal fraction only in the presence of an NADPH-generating system
same,Papp,"PAMPA-BBB permeability; PAMPA-BBB classification: absorbed by the Central Nervous System, read-out: CNS Permeability",> 3.47 ×10⁻⁶ cm/s
same,Papp,"PAMPA-BBB permeability; PAMPA-BBB, mean, read-out: Pe (Experimental Mean)",11.5 ×10⁻⁶ cm/s
same,Pe (Experimental Mean),"PAMPA-BBB permeability; PAMPA-BBB, mean",11.48 10–6 cm/s
same,Pe1 (Experimental),"PAMPA-BBB permeability; PAMPA-BBB, replicate 1",12.43 10–6 cm/s
same,Pe2 (Experimental),"PAMPA-BBB permeability; PAMPA-BBB, replicate 2",10.53 10–6 cm/s
same,apoptotic events PC-9 cells,PC-9 cells,15.49 ± 1.28%
